This note sets out measurements from ChEMBL document CHEMBL3045904, “Synthesis, AM1 calculation, and biological studies of thiopyran-4-one and their azine derivatives” (2007).

Values after ≈ are worked out from the molar mass of the structure shown. Active and inactive are the calls of the source. No cut-off for these calls is given here.

Type in all cases: functional
The subject of one assay is Enterococcus faecalis. The experiment in a line: Antibacterial activity against Enterococcus faecalis after 24 hr by two-fold serial dilution method.
The test system of the next assay is Bacillus subtilis. Put plainly: Antibacterial activity against Bacillus subtilis after 24 hr by two-fold serial dilution method.
The test system of another assay is Staphylococcus aureus. The experiment in a line: Antibacterial activity against Staphylococcus aureus after 24 hr by two-fold serial dilution method.
A further assay concerns Aspergillus flavus. The experiment in a line: Antifungal activity against Aspergillus flavus after 72 to 96 hr by two-fold serial dilution method.
The test system of assay [1] is Candida. Put plainly: Antifungal activity against Candida-51 after 72 to 96 hr by two-fold serial dilution method.
The test system of a further assay is Pseudomonas aeruginosa. The experiment in a line: Antibacterial activity against Pseudomonas aeruginosa after 24 hr by twofold serial dilution method.
In the next assay the test system is Escherichia coli. Put plainly: Antibacterial activity against Escherichia coli after 24 hr by two-fold serial dilution method.
The subject of another assay is Aspergillus niger. The experiment in a line: Antifungal activity against Aspergillus niger after 72 to 96 hr by two-fold serial dilution method.
Assay [2] has as its system Candida. Put plainly: Antifungal activity against Candida-6 after 72 to 96 hr by two-fold serial dilution method.

Regarding `O/N=C1\C[C@@H](c2ccccc2)S[C@@H](c2ccccc2)C1`, the MIC result in the assay on Enterococcus faecalis, in the assay on Candida [1], in the assay on Pseudomonas aeruginosa, with Escherichia coli and with Aspergillus niger was “inactive” in each case. The MIC with Bacillus subtilis, in the assay with Staphylococcus aureus, in the assay on Aspergillus flavus and with Candida [2] was 100 µg/mL (≈ 353 µM) in each case.

As to `O=C1C[C@@H](c2ccccc2)S[C@@H](c2ccccc2)C1`, the MIC result with Enterococcus faecalis, in the assay with Candida [1], in the assay on Pseudomonas aeruginosa, in the assay with Escherichia coli and in the assay with Aspergillus niger was “inactive” each time. In addition, the MIC in the assay with Bacillus subtilis, in the assay with Staphylococcus aureus, against Aspergillus flavus and against Candida [2] was 100 µg/mL (≈ 373 µM) each time.

With `c1ccc([C@@H]2C/C(=N\N=C3/C[C@@H](c4ccccc4)S[C@@H](c4ccccc4)C3)C[C@H](c3ccccc3)S2)cc1`, the MIC – broadly, the lowest concentration found to suppress growth – in the assay on Enterococcus faecalis amounted to 100 µg/mL (≈ 188 µM); with Bacillus subtilis, 50 µg/mL (≈ 93.8 µM); against Staphylococcus aureus, 25 µg/mL (≈ 46.9 µM); in the assay on Aspergillus flavus, 100 µg/mL (≈ 188 µM); against Candida [1], 50 µg/mL (≈ 93.8 µM); in the assay with Pseudomonas aeruginosa, 50 µg/mL (≈ 93.8 µM). Moreover, the MIC came out at 100 µg/mL (≈ 188 µM) against Escherichia coli, 50 µg/mL (≈ 93.8 µM) with Aspergillus niger and 100 µg/mL (≈ 188 µM) against Candida [2].

On to `N/N=C1\C[C@@H](c2ccccc2)S[C@@H](c2ccccc2)C1` (relative stereo), for which the MIC in the assay with Enterococcus faecalis, with Bacillus subtilis, with Staphylococcus aureus, against Aspergillus flavus, against Candida [1] and in the assay with Pseudomonas aeruginosa was 100 µg/mL (≈ 354 µM) throughout. In addition, the MIC in the assay with Escherichia coli was found to be 50 µg/mL (≈ 177 µM); against Aspergillus niger, 100 µg/mL (≈ 354 µM); in the assay with Candida [2] it was 50 µg/mL (≈ 177 µM).

Regarding `Oc1ccccc1/C=N/N=C1\C[C@@H](c2ccccc2)S[C@@H](c2ccccc2)C1` (relative stereo), the MIC worked out at 25 µg/mL (≈ 64.7 µM) against Enterococcus faecalis; 6.25 µg/mL (≈ 16.2 µM) in the assay on Bacillus subtilis; 25 µg/mL (≈ 64.7 µM) in the assay with Staphylococcus aureus; 50 µg/mL (≈ 129 µM) against Aspergillus flavus; 12.5 µg/mL (≈ 32.3 µM) with Candida [1]; 25 µg/mL (≈ 64.7 µM) in the assay on Pseudomonas aeruginosa. Moreover, the MIC in the assay on Escherichia coli was found to be 12.5 µg/mL (≈ 32.3 µM); in the assay on Aspergillus niger it was 25 µg/mL (≈ 64.7 µM); against Candida [2], 12.5 µg/mL (≈ 32.3 µM).

Regarding `COc1ccc(/C=N/N=C2\C[C@@H](c3ccccc3)S[C@@H](c3ccccc3)C2)cc1` (relative stereo), the MIC was determined as 25 µg/mL (≈ 62.4 µM) against Enterococcus faecalis; 6.25 µg/mL (≈ 15.6 µM) in the assay on Bacillus subtilis; 25 µg/mL (≈ 62.4 µM) in the assay on Staphylococcus aureus; 100 µg/mL (≈ 250 µM) against Aspergillus flavus; 12.5 µg/mL (≈ 31.2 µM) in the assay with Candida [1]; 50 µg/mL (≈ 125 µM) with Pseudomonas aeruginosa. Besides, the MIC stood at 12.5 µg/mL (≈ 31.2 µM) with Escherichia coli, 50 µg/mL (≈ 125 µM) with Aspergillus niger and 12.5 µg/mL (≈ 31.2 µM) in the assay with Candida [2].

With `O=[N+]([O-])c1ccccc1/C=N/N=C1\C[C@@H](c2ccccc2)S[C@@H](c2ccccc2)C1` (relative stereo), the MIC in the assay with Enterococcus faecalis came to 50 µg/mL (≈ 120 µM); against Bacillus subtilis it was 25 µg/mL (≈ 60.2 µM); in the assay on Staphylococcus aureus, 25 µg/mL (≈ 60.2 µM); against Aspergillus flavus it was 100 µg/mL (≈ 241 µM); with Candida [1], 25 µg/mL (≈ 60.2 µM); with Pseudomonas aeruginosa, 50 µg/mL (≈ 120 µM). For the same molecule, the MIC against Escherichia coli is 100 µg/mL (≈ 241 µM); against Aspergillus niger, 100 µg/mL (≈ 241 µM); with Candida [2], 50 µg/mL (≈ 120 µM).

As for `C[C@@H]1[C@H](O)[C@@H](C)/C=C/C=C/C=C/C=C/C=C/C=C/C=C/[C@H](O[C@@H]2O[C@H](C)[C@@H](O)[C@H](N)[C@@H]2O)C[C@@H]2O[C@](O)(C[C@@H](O)C[C@@H](O)[C@H](O)CC[C@@H](O)C[C@@H](O)CC(=O)O[C@H]1C)C[C@H](O)[C@H]2C(=O)O` [AMPHOTERICIN B], the MIC in the assay with Aspergillus flavus was 50 µg/mL (≈ 54.1 µM); in the assay on Candida [1], 25 µg/mL (≈ 27.1 µM); in the assay on Aspergillus niger it was 50 µg/mL (≈ 54.1 µM); against Candida [2] it was 25 µg/mL (≈ 27.1 µM).

Take `CN[C@@H]1[C@H](O[C@H]2[C@H](O[C@H]3[C@H](O)[C@@H](O)[C@H](N=C(N)N)[C@@H](O)[C@@H]3N=C(N)N)O[C@@H](C)[C@]2(O)C=O)O[C@@H](CO)[C@H](O)[C@H]1O` [STREPTOMYCIN]: the minimal inhibitory concentration (MIC) with Enterococcus faecalis turned out to be 50 µg/mL (≈ 86 µM); in the assay with Bacillus subtilis it was 12.5 µg/mL (≈ 21.5 µM); with Staphylococcus aureus it was 25 µg/mL (≈ 43 µM); against Pseudomonas aeruginosa, 25 µg/mL (≈ 43 µM); against Escherichia coli it was 12.5 µg/mL (≈ 21.5 µM).
